Assay results: patent US20110105389A1 (priority 2009, published 2011)
Where two headings read alike, the source gives them in different places.

Key:
[1] = biological target: T1, GHS-R1a receptor (HEK293 cells expressing GHS-R1a receptor) (Homo sapiens, UniProt Q92847); experiment: Fluorescence functional assay (ghrelin receptor), Method B2, agonist and antagonist mode; format: cell-based; conditions: functional activity as an antagonist at the ghrelin receptor, Methods B2 and B3
T1 construct: host or cells: HEK293
T1 sequence (Q92847 whole entry): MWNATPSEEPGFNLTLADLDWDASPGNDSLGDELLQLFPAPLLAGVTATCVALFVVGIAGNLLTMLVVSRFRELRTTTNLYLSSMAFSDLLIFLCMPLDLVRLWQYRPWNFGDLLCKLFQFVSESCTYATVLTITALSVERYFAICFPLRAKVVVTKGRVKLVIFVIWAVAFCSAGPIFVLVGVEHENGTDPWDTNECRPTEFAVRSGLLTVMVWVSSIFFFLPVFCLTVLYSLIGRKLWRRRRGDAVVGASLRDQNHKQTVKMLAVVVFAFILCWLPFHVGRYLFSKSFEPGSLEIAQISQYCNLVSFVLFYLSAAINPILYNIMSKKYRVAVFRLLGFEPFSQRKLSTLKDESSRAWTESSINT
Method in brief: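 Calcium flux read by ImageTrak epifluorescence in HEK293 cells stably expressing GHS-R1a, loaded 1 h at 37 °C with Calcium-3 dye; buffer HBSS/20 mM Hepes, pH 7.4, with probenecid and BSA. Agonists injected after 10 s baseline, read 50 s more; antagonists 3 min. Sigmoidal fits gave EC50 or IC50.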

[2] = system: rat stomach fundus strips; experiment: Ex-vivo potency evaluation on the rat stomach fundus (inhibition of ghrelin-induced contractility), Method B10; conditions: EFS
Protocol: B10. Ex-vivo Potency Evaluation on the Rat Stomach Fundus
Fundus strips (approximately 0.4×1 cm) were cut from the stomach of adult male Wistar rats parallel to the circular muscle fibers. They were placed between two platinum ring electrodes, 1 cm apart (Radnoti, ADlnstruments, USA) in 10 ml tissue baths containing Krebs solution bubbled with 5% CO2 in O2 and maintained at 37° C. Tissues were suspended under 1.5 g resting tension. Changes of tension were measured isometrically with force transducers and recorded with a PowerLab 8/30 data acquisition system (ADlnstruments, USA). Tissues were allowed to equilibrate for 60 min during which time bath solutions were changed every 15 min.
EFS was achieved by applying 0.5 ms pulses, 5 Hz frequency, at a maximally effective voltage of 70 V. EFS was applied for 30 sec at 3 min intervals for a 30 min initial period. This initial period was separated by a […] interval with wash out of the bath solution. Then, a second period of stimulation was started. […] Responses to the agents were measured and expressed as % of the mean of three or four pre-drug responses to EFS. All compounds were dissolved at 1 mM in distilled water or MeOH, as stock solutions.
IC50 values for the inhibition of ghrelin-induced contractility by representative compounds of the invention are presented in Table 7.

[3] = biological target: T2, human ghrelin receptor (GRLN, growth hormone secretagogue receptor, hGHS-R1a) (Homo sapiens, UniProt Q92847); experiment: Competitive radioligand binding assay (ghrelin receptor), Method B1
T2 construct: purchased PerkinElmer BioSignal #RBHGHSM, lot#1887; host or cells: HEK-293 cells, stably transfected (membranes)
T2 sequence (Q92847 whole entry): as above
Method in brief: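 Membranes incubated with compound 30 min at rt in 25 mM Hepes pH 7.4, 1 mM CaCl2, 5 mM MgCl2, 2.5 mM EDTA, 0.4% BSA, max 0.1% DMSO; filtered on PEI-soaked GF/C, washed with cold Tris, scintillation counted. Curves fitted by variable-slope non-linear regression.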

CYP3A4 [4] = biological target: T3, CYP3A4 (Homo sapiens, UniProt P08684); experiment: biochemical
T3 sequence (P08684 whole entry): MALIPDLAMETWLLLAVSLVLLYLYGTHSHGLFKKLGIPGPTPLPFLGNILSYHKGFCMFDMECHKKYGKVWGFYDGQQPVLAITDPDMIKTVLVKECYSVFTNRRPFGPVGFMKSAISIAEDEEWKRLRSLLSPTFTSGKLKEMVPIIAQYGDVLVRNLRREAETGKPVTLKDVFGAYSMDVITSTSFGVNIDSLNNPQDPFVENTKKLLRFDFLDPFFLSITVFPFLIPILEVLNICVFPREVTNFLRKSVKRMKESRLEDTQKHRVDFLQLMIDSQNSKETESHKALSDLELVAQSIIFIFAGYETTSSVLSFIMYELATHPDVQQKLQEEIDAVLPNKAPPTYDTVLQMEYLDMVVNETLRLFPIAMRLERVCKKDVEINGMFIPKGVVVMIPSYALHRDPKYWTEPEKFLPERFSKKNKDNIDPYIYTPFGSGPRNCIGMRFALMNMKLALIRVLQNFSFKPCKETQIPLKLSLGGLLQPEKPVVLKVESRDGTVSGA

CYP2D6 = CYP2D6 (Homo sapiens, UniProt P10635); experiment: biochemical
Chain of CYP2D6 (P10635 whole entry): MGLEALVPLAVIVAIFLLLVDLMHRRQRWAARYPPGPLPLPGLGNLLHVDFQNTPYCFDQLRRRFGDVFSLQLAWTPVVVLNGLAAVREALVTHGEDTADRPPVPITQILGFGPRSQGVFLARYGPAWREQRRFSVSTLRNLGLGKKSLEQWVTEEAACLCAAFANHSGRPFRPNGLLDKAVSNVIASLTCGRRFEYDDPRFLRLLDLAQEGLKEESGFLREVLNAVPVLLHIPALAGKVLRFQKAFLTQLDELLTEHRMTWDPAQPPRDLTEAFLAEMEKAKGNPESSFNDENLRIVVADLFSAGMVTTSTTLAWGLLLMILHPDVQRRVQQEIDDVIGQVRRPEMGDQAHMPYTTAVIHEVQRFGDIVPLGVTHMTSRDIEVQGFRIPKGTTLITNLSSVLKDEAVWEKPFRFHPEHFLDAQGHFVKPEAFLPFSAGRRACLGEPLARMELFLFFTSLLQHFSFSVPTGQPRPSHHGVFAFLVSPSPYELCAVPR

[5] = Metabolic stability in human liver microsomes, Method B8; format: in vitro ADME; conditions: human liver microsomes 0.8 mg/mL, 5 μM compound, 37° C.
Text: B8. Metabolic Stability in Human Liver Microsomes
The liver is the primary site for phase I (oxidation) and phase II (glucuronidation) enzymatic activity responsible for xenobiotic metabolism. Human liver microsomes are used as in vitro screen of metabolic activity for candidate drugs. Similar studies can be run with microsomes from other species, such as those used for in vivo studies, to determine any significant species differences in the stability profile. The aim of this study was to measure the broad-spectrum metabolic stability of representative compounds of the invention. The key aspects of the experimental design are summarized below: • Human liver microsomes (mixed pool of 15 male and female donors) were purchased from In Vitro Technologies (Baltimore, Md.). • Microsomes characterized for phase I (Cyp2A6, 2D6, 2E1, 1A2, 2C19, 3A4, 4A) and phase II (glucuronidation) enzymatic activity. • Assays are performed using a final concentration of 0.8 mg/mL of microsomes in 100 mM potassium phosphate buffer (1.5 mM NADPH, 8 mM MgCl2, pH 7.4, 37° C.). • Compounds are tested in duplicate samples at a single concentration of 5 μM (0.05% DMSO). • Test articles are incubated with the microsomes at 37° C.

[6] = biological target: T4, ghrelin receptor (HEK-GHSR1 stable cells) (Homo sapiens, UniProt Q92847); experiment: Ghrelin receptor inverse agonist assay (HTRF IP-one), Method B4; format: cell-based; conditions: inverse agonist at the ghrelin receptor, Method B4
T4 construct: expressed in transfected cells
T4 sequence (Q92847 whole entry): as the sequence (Q92847 whole entry) above
Method in brief: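 HEK cells stably expressing GHSR1, seeded at 100 000 cells/well overnight, exposed to compound for 30 min at 37° C. Cells then lysed and IP1 accumulation measured by HTRF (d2 plus anti-IP1 cryptate, 1 h at room temp). Wells lacking d2 served as negative control.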

[7] = Plasma protein binding (equilibrium dialysis), Method B5; format: in vitro ADME; conditions: 60 min at 37° C., typically 10 μM
Text: B5. Plasma Protein Binding
The pharmacokinetic and pharmacodynamic properties of drugs are largely a function of the reversible binding of drugs to plasma or serum proteins such as albumin and α1-acid glycoprotein. In general, only unbound drug is available for diffusion or transport across cell membranes, and for interaction at the pharmacological target. On the other hand, drugs with low plasma protein binding generally have large volumes of distribution and rapid clearance since only unbound drug is available for glomerular filtration and, in some cases, hepatic clearance. Thus, the extent of plasma protein binding can influence efficacy, distribution and elimination. The ideal range for plasma protein binding is in the range of 87-98% for most drug products.
Protein binding studies were performed using human plasma. Briefly, 96-well microplates were used to incubate various concentrations of the test article for 60 min at 37° C. A concentration of 10 μM was a typical selection to be employed in this study. Bound and unbound fractions are separated by equilibrium dialysis, where the concentration remaining in the unbound fraction is quantified by LC-MS or LC-MS-MS analysis. […].

CYP3A4 [8] = biological target: T3, CYP3A4; experiment: Cytochrome P450 inhibition, Method B6 (two substrates); conditions: read-out: IC50 CYP 3A4; Table 4b; midazolam used as substrate
[9] = Pharmacokinetic analysis (intravenous and oral), Method B9; format: in vivo; conditions: Table 10b; 2 mg/mL intravenous typically employed
Text: B9. Pharmacokinetic Analysis
The pharmacokinetic (PK) behavior of compounds of the invention and their pharmaceutical compositions can be ascertained by methods well known to those skilled in the art and can be used to investigate the pharmacokinetic parameters (elimination half-life, total plasma clearance, etc.) for intravenous, subcutaneous and oral administration of these substances. (Wilkinson, G. R. “Pharmacokinetics: The Dynamics of Drug Absorption, Distribution, and Elimination” in Goodman & Gilman's The Pharmacological Basis of Therapeutics, Tenth Edition, Hardman, J. G.; Limbird, L. E., Eds., McGraw Hill, Columbus, Ohio, 2001, Chapter 1.) See also U.S. Pat. Nos. 7,476,653; 7,491,695; Intl. Pat. Appl. WO 2008/033328 and U.S. Patent Appl. Publ. 2008/0194672. As an example, compound 1505 has the PK profile below.
The determination of PK parameters for additional representative compounds of the invention is presented in the Examples.
A detailed analysis of the pharmacokinetic profile of representative compounds of the invention was conducted using the procedures outlined in Method B9.
A dose level of 2 mg/mL for intravenous administration and 8 mg/mL for oral administration were typically employed.

[10] = Ghrelin receptor binding activity, Method B1

Antagonist Activity [1] | IC50 [3, 10] [nM] | HLM, metabolic stability in human liver microsomes [5] [μL/min/mg protein] | IC50 [6] [nM] | Compound | other results
A (A <1 nM) | – | 23.6 | – | CC(C)[C@@H]1NCCOc2cc(F)ccc2CC[C@@H](C)NC(=O)[C@@H](Cc2cccc(F)c2)NC(=O)[C@H](C(C)O)N(C)C1=O (some centres unmarked) [Compound 1392] | IC50 [2]: 4 nM
A (A <1 nM) | – | 54.2 | – | CC(C)[C@@H]1NCCOc2ccccc2CC[C@@H](C)NC(=O)[C@@H](Cc2cccc(Cl)c2)NC(=O)[C@H](C(C)O)N(C)C1=O (some centres unmarked) [Compound 1400] | IC50 [2]: 360 nM
C (C = 10-100 nM) | 10 to 100 | 85.2 | 100 to 500 | CCC(C)C1NCCOc2ccccc2CCCNC(=O)C(Cc2ccc(Cl)cc2)NC(=O)C(C(C)O)N(C)C1=O (centres unmarked) [Compound 1699] | –
– | 1 to 10 | – | 10 to 50 | CC(C)[C@@H]1NCCOc2ccccc2C#C[C@@H](C)NC(=O)[C@@H](Cc2ccc(F)cc2)NC(=O)[C@H](C(C)O)N(C)C1=O (some centres unmarked) [Compound 1711] | Binding (%), Human Plasma Protein Binding [7]: 97.4%
B (B = 1-10 nM) | 1 to 10 | 26.1 | 100 to 500 | CCC(C)C1NCCOc2cc(F)ccc2C=CCNC(=O)C(Cc2ccc(Cl)cc2)NC(=O)C(C(C)O)N(C)C1=O (centres unmarked) [Compound 1739] | –
C (C = 10-100 nM) | 1 to 10 | 28.3 | 100 to 500 | CCC(C)C1NCCOc2ccc(F)cc2C=CCNC(=O)C(Cc2ccc(Cl)cc2)NC(=O)C(C(C)O)N(C)C1=O (centres unmarked) [Compound 1740] | –
– | 1 to 10 | 40.6 | 50 to 100 | CC[C@@H]1C#Cc2ccc(F)cc2OCCN[C@@H](C(C)C)C(=O)N(C)[C@@H](C(C)O)C(=O)N[C@H](Cc2ccccc2)C(=O)N1 (some centres unmarked) [Compound 1759] | Cl [9]: 14 ± 2 mL/min/kg; t1/2 [9]: 1.98 ± 1.68 h
– | 10 to 100 | 77.0 | 50 to 100 | CCC(C)C1NCCOc2ccccc2C=CCNC(=O)C(Cc2ccc(Cl)cc2Cl)NC(=O)C(C(C)O)N(C)C1=O (centres unmarked) [Compound 1761] | –
– | 10 to 100 | 73.4 | 100 to 500 | CC(O)[C@H]1C(=O)N[C@H](Cc2c[nH]c3ccccc23)C(=O)N[C@H](C)CCc2ccccc2OCCN[C@@H](C(C)(C)C)C(=O)N1C (some centres unmarked) [Compound 1762] | –

The next lines start with the compound.

Compound | Antagonist Activity [1] | IC50 [3, 10] [nM] | HLM, metabolic stability in human liver microsomes [5] [μL/min/mg protein] | IC50 [6] [nM] | other results
CCC(C)[C@@H]1NCCOc2ccccc2/C=C/[C@@H](C)NC(=O)[C@@H](Cc2ccccc2)NC(=O)[C@H](C(C)O)N(C)C1=O (some centres unmarked) [Compound 1315] | C (C = 10-100 nM) | 1 to 10 | – | – | IC50 [2]: 75 nM; Ki [3, 10]: 1 to 10 nM
CCC(C)[C@@H]1NCCOc2ccccc2/C=C/CNC(=O)[C@@H](Cc2cccc(F)c2)NC(=O)[C@H](C(C)O)N(C)C1=O (some centres unmarked) [Compound 1326] | C (C = 10-100 nM) | – | – | – | IC50 [3]: 10 to 100 nM; Ki [3]: 1 to 10 nM; IC50 (CYP3A4 [4]): 2200 nM; IC50 (CYP2D6): > 5000 nM
CCC(C)[C@@H]1NCCOc2ccccc2/C=C/CNC(=O)[C@@H](Cc2ccc(C(F)(F)F)cc2)NC(=O)[C@H](C(C)O)N(C)C1=O (some centres unmarked) [Compound 1327] | – | – | – | – | IC50 [3]: 10 to 100 nM; Ki [3]: 1 to 10 nM; IC50 (CYP3A4 [4]): > 17700 nM; IC50 (CYP2D6): > 25000 nM
CCC(C)[C@@H]1NCCOc2ccccc2C[C@H](O)CNC(=O)[C@@H](Cc2ccccc2)NC(=O)[C@H](C(C)O)N(C)C1=O (some centres unmarked) [Compound 1340] | – | – | – | – | IC50 [3]: 10 to 100 nM; Ki [3]: 10 to 100 nM; IC50 (CYP3A4 [4]): 17200 nM; IC50 (CYP2D6): 13300 nM
CC(C)[C@@H]1NCCOc2ccccc2CC[C@@H](C)NC(=O)[C@@H](Cc2cccc(F)c2)NC(=O)[C@H](C(C)O)N(C)C1=O (some centres unmarked) [Compound 1364] | B (B = 1-10 nM) | – | – | – | IC50 [2]: 200 nM
CC(C)[C@@H]1NCCOc2ccccc2CC[C@@H](C)NC(=O)[C@@H]([C@@H](C)c2ccccc2)NC(=O)[C@H](C(C)O)N(C)C1=O (some centres unmarked) [Compound 1390] | C (C = 10-100 nM) | – | 53 | – | IC50 (CYP3A4 [4]): 6900 nM; IC50 (CYP2D6): > 20000 nM
CC(C)[C@@H]1NCCOc2cc(F)ccc2CC[C@@H](C)NC(=O)[C@@H](Cc2ccccc2)NC(=O)[C@H](C(C)O)N(C)C1=O (some centres unmarked) [Compound 1391] | A (A <1 nM) | – | 16.6 | – | IC50 [2]: 65 nM
CC(O)[C@H]1C(=O)N[C@H](Cc2ccc(Cl)cc2)C(=O)NC/C=C/c2ccccc2OCCN[C@@H](C2(C)CC2)C(=O)N1C (some centres unmarked) [Compound 1729] | B (B = 1-10 nM) | 1 to 10 | 54.8 | 50 to 100 | IC50 (CYP3A4 [8]): 1900 nM
CCC(C)C1NCCOc2ccccc2C=CCNC(=O)C(Cc2ccc(Cl)cc2)NC(=O)C(C(C)O)N(C)C1=O (centres unmarked) [Compound 1730] | – | 1 to 10 | 61.9 | 100 to 500 | IC50 (CYP3A4 [8]): 1600 nM
CC[C@@H]1NCCOc2ccccc2/C=C/CNC(=O)[C@@H](Cc2ccc(Cl)cc2)NC(=O)[C@H](C(C)O)N(C)C1=O (some centres unmarked) [Compound 1732] | – | 10 to 100 | 52.2 | 100 to 500 | IC50 (CYP3A4 [8]): 2900 nM
